Data reported in patent US20140363530A1, “COMPOSITION COMPRISING THE EXTRACT OF PINE TREE LEAF OR THE COMPOUNDS ISOLATED THEREFROM FOR THE PREVENTION AND TREATMENT OF CANCER DISEASE BY INHIBITING HPV VIRUS AND THE USES THEREBY” (priority 2012, published 2014).
In brackets after ≈: the same amount, converted by molar mass. Read-outs that look alike come from different tables or passages of the source.

Legend:
HPV16 PVs = experiment: Virus inhibition test (in vitro), SEAP activity of 293TT cells infected with HPV pseudovirion; format: cell-based; conditions: Human papillomavirus 16, read-out: inhibitory activity from HPV16 PVs
Description: Prior to in vitro antiviral assay, 5×10^3 of 293TT cell was seeded on 96-well plate and incubated at 37° C. for 16 hours in 5% CO2 atmosphere. The culture media was removed and each extract was diluted to the concentration of 100 μg/ml or 50 μg/ml to distribute into each cell at the dose of 100 μl/cell. After treating with the extract for 16 hours, the culture media was removed and the cell was washed with PBS twice. The cell was infected by 106RLU/ml of HPV PVs at the dose of 100 μl/cell and incubated for 48 hours at 37° C. in 5% CO2 atmosphere. To determine the viral activity, the supernatant of the cell culture was used for determine the activity of secreted alkaline phosphatase (SEAP) using by Great EscAPE™ SEAP Chemiluminescence Kit (631738, Clontech, CA, USA). To determine the SEAP activity, relative light units (RLU) value was obtained using by Luminescence coulter (Micro beta triLux 1450, PerkinElmer, CT, USA) and the RLU values of the cell treated with the extract and untreated with the extract, were compared with each other. The decrease of SEAP activity was regarded as the inhibition effect against HPV PVs.
To determine the inhibitory effect on luciferase-comprising HPV virus contagion of the test samples prepared in Examples, following test was performed according to the method disclosed in the literature (Shaneyfelt et al., Virology Journal, 3:68, 2006, 1-11; Roden et al., J. Virol., 70, 1996, 5875-5883; Unckell et al., J. Virol., 71, 1997, 2934-2939; Touze et al., Nucleic Acids Research, 26, 1998, 1317-1323; Selinka et al., J. Virol., 77, 2003, 12961-12967; Klasse et al., Journal of General Virology, 83, 2002, 2091-2108)
5×10^3293TT cell was seeded on 96-well plate and incubate for 16 hours. 50 μg of test sample was mixed with the culture media in the concentration of 100 ug/ml and incubated for 16 hours. The media was washed with 100 μl of PBS twice and the cell was infected with 10^6RLU/ml of HPV pseudovirion at the dose of 100 μl/cell to incubate at 37° C., for 48 hours in 5% CO2 atmosphere.
5× lysis buffer in Great EscAPE™ SEAP Chemiluminescence Kit (631738, Clontech, CA, USA) was made to 1× and both of 45 μl of 1× lysis buffer and 15 μl of cell culture medium were added to 96-well plate (3912, Costar, NY, USA). 60 μl of the substrate in Great EscAPE™ SEAP Chemiluminescence kit was added thereto and the relative light units (RLU) value was obtained using by Luminescence coulter (Micro beta triLux 1450, PerkinElmer, CT, USA). The RLU values of the cell treated with the extract and untreated with the extract, were compared with each other and the decrease of SEAP activity was regarded as the inhibition effect against HPV PVs.

[1] = system: HCT15 (human colon adenocarcinoma); experiment: SRB cytotoxicity test, HCT15; format: cell-based; conditions: for IC50: Homo sapiens, HCT-15, 48 h, read-out: Cytotoxicity IC50, HCT15
Description: (§1) To determine the cytotoxicity against human tumor cell line of the test samples prepared in Examples, following sulforhodamin B (SRB) bioassy test was performed according to the method disclosed in the literature (Skehan, P., et al., J. Natl. Cancer Inst., 82, 1990, 1107-1112).
(§2) Various human tumor cell lines, i.e., A-549 (human adenocarcinoma of lung, NCI), SK-OV-3 (human ovarian tumor, NCI), SK-MEL-2 (human malignant melanoma, NCI), HCT15 (human colon adenocarcinoma, NCI), MES-SA (human uterine carcinoma, NCI) and MES-SA/DX5 (multidrug resistant carcinoma subline of MES-SA, NCI) were used in the test.
(§3) The subcultured cell lines were detached from the surface of wall using by trypsin-EDTA solution and adjusted to various concentration of cell lines, i.e., 5×10^3 cells/well (A-549, HCT15), 1×10^4 cells/well (SK-MEL-2), 5×10^3 cells/well (SK-OV-3) in 96-well flat bottom microplate. The inoculated cell lines were incubated in CO2 incubator (MCO-20AIC, SANYO Electric Co., LTd.) to be attached on the bottom of incubator and the culture media was removed with aspirator. 6 logarithmic concentrations of the diluted test samples were added to each well containing cell line at 100 μl/well in a three fold dilution manner and the cell was incubated for 48 hours. The culture media in each well was removed and 100μ of 10% trichloroacetic acid was added thereto to be left alone at 4° C. for 1 hour and to fix the cells to the bottom of the plates. […] The cell plates were shaked with titer plate shaker (KOMA Orbital Shaker KE011, KOMABIOTech) for 10 mins to exude the staining solution and to determine the absorbance at 520 nm using by microplate spectrophotometer (Sunrise, TECAN).

[2] = system: MES-SA (human uterine carcinoma); experiment: SRB cytotoxicity test, MES-SA; format: cell-based; conditions: for IC50: Homo sapiens, MES-SA, 48 h, read-out: Cytotoxicity IC50, MES-SA
Description: as §1, §2, §3

[3] = system: MES-SA/DX5 (multidrug resistant carcinoma subline of MES-SA); experiment: SRB cytotoxicity test, MES-SA/DX5; format: cell-based, human; conditions: for IC50: Homo sapiens, MES-SA/Dx5, 48 h
Description: as §1, §2, §3

HCT15/CL02 = experiment: SRB cytotoxicity test, HCT15/CL02; format: cell-based, human; conditions: Table 4, 48 hours; for IC50: Homo sapiens, HCT-15
Description: To determine the cytotoxicity against human tumor cell line of the test samples prepared in Examples, following sulforhodamin B (SRB) bioassy test was performed according to the method disclosed in the literature (Skehan, P., et al., J. Natl. […] The inoculated cell lines were incubated in CO2 incubator (MCO-20AIC, SANYO Electric Co., LTd.) to be attached on the bottom of incubator and the culture media was removed with aspirator. 6 logarithmic concentrations of the diluted test samples were added to each well containing cell line at 100 μl/well in a three fold dilution manner and the cell was incubated for 48 hours. […] The cell plates were shaked with titer plate shaker (KOMA Orbital Shaker KE011, KOMABIOTech) for 10 mins to exude the staining solution and to determine the absorbance at 520 nm using by microplate spectrophotometer (Sunrise, TECAN).

[4] = system: A-549 (human adenocarcinoma of lung); experiment: SRB cytotoxicity test, A-549; format: cell-based; conditions: for IC50: Homo sapiens, A549, Table 3, 48 hours, read-out: Cytotoxicity IC50, A-549
Description: as §1, §2, §3

[5] = system: SK-OV-3 (human ovarian tumor); experiment: SRB cytotoxicity test, SK-OV-3; format: cell-based; conditions: for IC50: Homo sapiens, SK-OV-3, Table 3, 48 hours, read-out: Cytotoxicity IC50, SK-OV-3
Description: as §1, §2, §3

[6] = system: SK-MEL-2 (human malignant melanoma); experiment: SRB cytotoxicity test, SK-MEL-2; format: cell-based; conditions: for IC50: Homo sapiens, SK-MEL-2, Table 3, 48 hours, read-out: Cytotoxicity IC50, SK-MEL-2
Description: as §1, §2, §3

[7] = read-out: Cytotoxicity IC50, MES-SA/DX5

Compound | inhibition at 50 µg/mL (HPV16 PVs) [%] | IC50 ([1]; Table 4, 48 hours) [µg/mL] | IC50 ([2]; Table 4, 48 hours) [µg/mL] | IC50 [3, 7] [µg/mL] | IC50 (HCT15/CL02) [µg/mL] | IC50 [4] [µg/mL] | IC50 [5] [µg/mL] | IC50 [6] [µg/mL] | IC50 ([1]; Table 3, 48 hours) [µg/mL] | IC50 ([2]; Table 3, 48 hours) [µg/mL] | further results
C=C1CCC2[C@](C)(C(=O)O)CCC[C@]2(C)[C@H]1CC[C@H](C)CCO (stereo partly drawn) [compound (b), (13S)-15-hydroxylabd-8(17)-en-18-oic acid] | 70 to 80 | 20.2 (≈ 62.5 µM) | 19.1 (≈ 59.1 µM) | 11.5 (≈ 35.7 µM) | 12.8 (≈ 39.8 µM) | – | – | – | – | – | –
C=C1CC[C@H]2O[C@]2(C)CC[C@@H]2[C@@H]1CC2(C)C [compound (l), caryophyllene oxide] | 70 to 80 | – | – | 17.7 (≈ 80.5 µM) | – | 36.4 (≈ 165 µM) | 23.7 (≈ 108 µM) | 18.6 (≈ 84.6 µM) | 26.8 (≈ 121 µM) | 15.2 (≈ 69.2 µM) | –
CC(C)(O)c1ccc2c(c1)C(=O)C[C@H]1[C@](C)(C(=O)O)CCC[C@]21C [compound (g), 7-oxo-15-hydroxydehydroabietic acid] | 70 to 80 | > 30 | > 30 | > 30 | > 30 | – | – | – | – | – | –
C=C1CCC2C(C)(C(=O)O)CCCC2(C)C1CCC(C)CC(=O)O (stereo not drawn) [compound (c), ent-labd-8(17)-ene-15,18-dioic acid] | – | – | – | – | – | – | – | – | – | – | Cytotoxicity IC50, HCT15 [1]: >30.0 µg/mL; Cytotoxicity IC50, MES-SA [2]: >30.0 µg/mL; Cytotoxicity IC50, MES-SA/DX5 ([3]; Table 4, 48 hours): >30.0 µg/mL; Cytotoxicity IC50, HCT15/CL02 (HCT15/CL02): 21.47 µg/mL
C[C@@]1(C(=O)O)CCC[C@]2(C)c3ccc(O)cc3CCC12 (stereo partly drawn) [compound (e), 13-hydroxy-8,11,13-podocarpatrien-18-oic acid] | 70 to 80 | > 30 | > 30 | 25.8 (≈ 94.2 µM) | 26.4 (≈ 96.1 µM) | – | – | – | – | – | –
CC(C)(O)c1ccc2c(c1)CC[C@H]1[C@](C)(C(=O)O)CCC[C@]21C [compound (k), 15-hydroxydehydroabietic acid] | 70 to 80 | – | – | 91.9 (≈ 290 µM) | – | 109 (≈ 345 µM) | 142 (≈ 448 µM) | 88.8 (≈ 281 µM) | 98.2 (≈ 310 µM) | 90.7 (≈ 286 µM) | –
C=C1CCC2[C@](C)(C(=O)O)CCC[C@]2(C)[C@H]1/C=C/C(C)=O (stereo partly drawn) [compound (d), 13-oxo-15,16-dinorlabda-8(17),11E-dien-19-oic acid] | 70 to 80 | > 30 | > 30 | – | 27.6 (≈ 95.2 µM) | – | – | – | – | – | IC50 ([3]; read-out: Cytotoxicity IC50, MES-SA/DX5, Table 4, 48 hours): > 30 µg/mL
C=C[C@]1(C)CCC2[C@@]3(C)CCC[C@@](C)(CO)C3CC[C@@]2(C)O1 (single isomer, unassigned; ent-18) [compound (h), ent-18-hydrorxy-13-epimanoyl oxide] | 70 to 80 | – | – | 9.54 (≈ 31.1 µM) | – | 13.3 (≈ 43.5 µM) | 12.7 (≈ 41.4 µM) | 11.3 (≈ 36.7 µM) | 10 (≈ 32.8 µM) | 8.17 (≈ 26.7 µM) | –
CC(C)c1ccc2c(c1)[C@H](O)CC1[C@](C)(C(=O)O)CCC[C@]21C (stereo partly drawn) [compound (f), 7α-hydroxycallitirisic acid] | 70 to 80 | > 30 | 26.8 (≈ 84.7 µM) | 27.4 (≈ 86.7 µM) | > 30 | – | – | – | – | – | –
9,14-dihydroxytotara-7-ene-8-oic acid [compound (a)] | – | – | – | – | – | – | – | – | – | – | Cytotoxicity IC50, A-549 [4]: 127.16 µg/mL; Cytotoxicity IC50, SK-OV-3 [5]: 120.05 µg/mL; Cytotoxicity IC50, SK-MEL-2 [6]: 99.45 µg/mL; Cytotoxicity IC50, HCT15 [1]: 117.31 µg/mL
